PMC8426237, “A first-in-human phase I study of TAS0728, an oral covalent binding inhibitor of HER2, in patients with advanced solid tumors with HER2 or HER3 aberrations” (Investigational New Drugs, 2021)

Experiment: Phase I safety assessment: adverse events (CTCAE v5.0) in patients
[1] = 50-mg dose level cohort, 2 of 3
[2] = Dose Level 1: 50 mg BID (N = 3)
[3] = Dose Level 2: 100 mg BID (N = 3)
[4] = Dose Level 3: 200 mg BID (N = 7)

Description: A DLT was defined as a study treatment-related adverse event (TRAE), according to the Common Terminology Criteria for Adverse Events (CTCAE, Version 5.0), with qualifying criteria for certain DLTs (e.g., Grade ≥ 3 diarrhea, was included as a DLT only if lasting >48 h and unresponsive to intensive antidiarrheal medication).
Patients were closely monitored for these potential toxicities during the current study. Safety assessments included recording of AEs and serious AEs (SAEs) from the time of signing the study informed consent form to 30 days after the last dose of study medication. Safety parameters including laboratory evaluations (hematology, coagulation, chemistry, and urinalysis), vital sign measurements and body weight, electrocardiogram (ECG) recordings, ECOG performance status, echocardiogram or multi-gated acquisition (MUGA), and physical examination were assessed at screening, during the study and at 30 days following the last dose. The use of concomitant medications was permitted and details for such medications were recorded.

C=CC(=O)N1CCC[C@@H](n2nc(C(=O)Nc3ccc(CC(=O)N(C)C)c(C)c3C)c3c(N)ncnc32)C1 [TAS0728]
4 (66.7) n, (%): Patients with SAEs (150 mg BID (N = 6))
0 n (%): Adverse events experienced in ≥10% patients, Grade 5 [2] | Diarrhea, Grade 4 [2] | Diarrhea, Grade 5 [2] | Hyperuricemia, Grade 2 [2] | Hyperuricemia, Grade 3 [2] | Hyperuricemia, Grade 4 [2] | Hyperuricemia, Grade 5 [2] | Hyperuricemia, ≥Grade 3 [2] | Adverse events experienced in ≥10% patients, Grade 3 [3] | Adverse events experienced in ≥10% patients, Grade 4 [3] | Adverse events experienced in ≥10% patients, Grade 5 [3] | Adverse events experienced in ≥10% patients, ≥Grade 3 [3] | Diarrhea, Grade 3 [3] | Diarrhea, Grade 4 [3] | Diarrhea, Grade 5 [3] | Diarrhea, ≥Grade 3 [3] | Adverse events experienced in ≥10% patients, Grade 4 [4] | Adverse events experienced in ≥10% patients, Grade 5 [4] | Anemia, Grade 4 [4] | Anemia, Grade 5 [4] | Asthenia, Grade 3 [4] | Asthenia, Grade 4 [4] | Asthenia, Grade 5 [4] | Asthenia, ≥Grade 3 [4] | Cough, Grade 2 [4] | Cough, Grade 3 [4] | Cough, Grade 4 [4] | Cough, Grade 5 [4] | Cough, ≥Grade 3 [4] | Decreased appetite, Grade 3 [4] | Decreased appetite, Grade 4 [4] | Decreased appetite, Grade 5 [4] | Decreased appetite, ≥Grade 3 [4] | Dermatitis acneiform, Grade 3 [4] | Dermatitis acneiform, Grade 4 [4] | Dermatitis acneiform, Grade 5 [4]
6 (85.7) n, (%): Patients with treatment-related AEs (200 mg BID (N = 7))
3 (100) n (%): Adverse events experienced in ≥10% patients, Grade 1 [2] | Adverse events experienced in ≥10% patients, Total [2] | Adverse events experienced in ≥10% patients, Grade 1 [3] | Adverse events experienced in ≥10% patients, Total [3] | Diarrhea, Grade 1 [3] | Diarrhea, Total [3]
6 (85.7) n (%): Adverse events experienced in ≥10% patients, Grade 1 [4]
85.7%: Patients with diarrhea (200-mg dose, 6 of 7)
7 (100) n, (%): Patients with AEs (200 mg BID (N = 7))
2 (66.7) n (%): Adverse events experienced in ≥10% patients, Grade 3 [2] | Adverse events experienced in ≥10% patients, ≥Grade 3 [2] | Diarrhea, Grade 1 [2] | Diarrhea, Total [2] | Hyperuricemia, Grade 1 [2] | Hyperuricemia, Total [2] | Adverse events experienced in ≥10% patients, Grade 2 [3]
0 n, (%): Patients with AEs that had an outcome of death (50 mg BID (N = 3)) | Patients with AEs that led to study treatment discontinuation (50 mg BID (N = 3)) | Patients with treatment-related and Grade ≥ 3 AEs (50 mg BID (N = 3)) | Patients with AEs that had an outcome of death (100 mg BID (N = 3)) | Patients with Grade ≥ 3 AEs (100 mg BID (N = 3)) | Patients with SAEs (100 mg BID (N = 3)) | Patients with treatment-related and Grade ≥ 3 AEs (100 mg BID (N = 3)) | Patients with AEs that had an outcome of death (200 mg BID (N = 7))
3 (100) n, (%): Patients with AEs (50 mg BID (N = 3)) | Patients with treatment-related AEs (50 mg BID (N = 3)) | Patients with AEs (100 mg BID (N = 3)) | Patients with treatment-related AEs (100 mg BID (N = 3))
4 (57.1) n (%): Adverse events experienced in ≥10% patients, Grade 3 [4] | Adverse events experienced in ≥10% patients, ≥Grade 3 [4]
3 (42.9) n (%): Anemia, Grade 2 [4] | Cough, Grade 1 [4] | Cough, Total [4] | Dermatitis acneiform, Total [4]
1 (16.7) n, (%): Patients with AEs that had an outcome of death (150 mg BID (N = 6)) | Patients with AEs that led to study treatment discontinuation (150 mg BID (N = 6))
2 (28.6) n (%): Anemia, Grade 1 [4] | Asthenia, Grade 1 [4] | Asthenia, Total [4] | Decreased appetite, Total [4] | Dermatitis acneiform, Grade 1 [4]
100%: Patients with diarrhea (all Grade 1 or Grade 2) (100-mg dose level cohort, all 3)
66.7%: Patients with diarrhea [1] | Patients with hyperuricemia [1]
one: Patients with fatal cardiac arrest (Grade 5) (150 mg BID, after 1 cycle (21 days))
4 (57.1) n, (%): Patients with Grade ≥ 3 AEs (200 mg BID (N = 7)) | Patients with treatment-related and Grade ≥ 3 AEs (200 mg BID (N = 7))
1: Patients with diarrhea at a severity ≥Grade 3 (50-mg dose level cohort)
5 (83.3) n, (%): Patients with treatment-related AEs (150 mg BID (N = 6))
2 (66.7) n, (%): Patients with Grade ≥ 3 AEs (50 mg BID (N = 3))
28.6%: Patients with asthenia (200-mg dose, 2/7) | Patients with decreased appetite (200-mg dose, 2/7) | Patients with dry skin (200-mg dose, 2/7) | Patients with edema peripheral (200-mg dose, 2/7) | Patients with hypokalemia (200-mg dose, 2/7) | Patients with nausea (200-mg dose, 2/7) | Patients with vomiting (200-mg dose, 2/7)
3 (42.9) n, (%): Patients with SAEs (200 mg BID (N = 7))
6 (100) n, (%): Patients with AEs (150 mg BID (N = 6))
71.4%: Patients with anemia (200-mg dose, 5/7)
3: Patients with diarrhea at a severity ≥Grade 3 (200-mg dose)
5.3%: Treatment discontinuation due to AEs (1 patient of 19) | Treatment discontinuation due to fatal cardiac arrest (1 patient of 19)
3 (50.0) n, (%): Patients with Grade ≥ 3 AEs (150 mg BID (N = 6))
1 (14.3) n (%): Anemia, Grade 3 [4] | Anemia, ≥Grade 3 [4] | Asthenia, Grade 2 [4] | Decreased appetite, Grade 1 [4] | Decreased appetite, Grade 2 [4] | Dermatitis acneiform, Grade 2 [4]
42.9%: Patients with cough (200-mg dose, 3/7) | Patients with dermatitis acneiform (200-mg dose, 3/7) | Patients with fatigue (200-mg dose, 3/7) | Patients with pyrexia (200-mg dose, 3/7)
7 (100) n (%): Adverse events experienced in ≥10% patients, Grade 2 [4] | Adverse events experienced in ≥10% patients, Total [4]
1 (33.3) n, (%): Patients with SAEs (50 mg BID (N = 3)) | Patients with AEs that led to study treatment discontinuation (100 mg BID (N = 3))
1 (14.3) n, (%): Patients with AEs that led to study treatment discontinuation (200 mg BID (N = 7))
2: Patients who worsened to an ECOG status of 2 (1 in each of the 200-mg and 150-mg BID cohorts, ECOG 1 at baseline)
2 (33.3) n, (%): Patients with treatment-related and Grade ≥ 3 AEs (150 mg BID (N = 6))
5 (71.4) n (%): Anemia, Total [4]
1 (33.3) n (%): Adverse events experienced in ≥10% patients, Grade 2 [2] | Adverse events experienced in ≥10% patients, Grade 4 [2] | Diarrhea, Grade 2 [2] | Diarrhea, Grade 3 [2] | Diarrhea, ≥Grade 3 [2] | Diarrhea, Grade 2 [3]
